Key:
[1] = design: species or system human; details: in vivo
Method: (§1) As a first step to test the feasibility of this approach, a self-experiment was conducted by the inventors. The aim was to obtain first data on the effect size, the pharmacokinetic data in various body fluids, and the variability between subjects. Single, large doses of the following substances were ingested by the subjects: ^13C6-glucose (1 g, two subjects) ^15N-L-leucine (1 g, two subjects) ^15N3-L-arginine (250 mg, one subject) ^15N4-L-histidine (250 mg, one subject) Baseline and follow-up samples were taken from the following body fluids: blood, saliva, and urine. These samples were dried, milled, burned, and analysed by mass spectrometry. […] Samples of exhaled breath were taken until 3 days after ingestion and analysed by IR-spectroscopy for ^13C/^12C-ratios.
(§2) Blood: Appr. 4 ml of venous blood were drawn and given into a thoroughly cleaned glass vial. The sample was frozen immediately at -18°C and stored at this temperature. Saliva: Saliva samples were obtained by letting the volunteers chew on "salivettes", i. e., cotton swabs, which were then centrifuged to extract saliva. The saliva samples were frozen at -18°C and stored at this temperature. […]
(§3) The isotopic composition was measured and compared to a standard. […] Samples of exhaled breath were taken until 3 days after ingestion and analysed by IR-spectroscopy for ^13C/^12C-ratios.

[2] = Blood test after ingestion of labelled substance (isotope content by mass spectrometry, δ-values); assay type: in vivo, human
Method: as §1
Blood: Appr. 4 ml of venous blood were drawn and given into a thoroughly cleaned glass vial. The sample was frozen immediately at -18°C and stored at this temperature. Saliva: Saliva samples were obtained by letting the volunteers chew on "salivettes", i. e., cotton swabs, which were then centrifuged to extract saliva. The saliva samples were frozen at -18°C and stored at this temperature. Urine: Urine was given into glass vials and frozen and stored at -18°C. All samples were freezedried in vacuo at -70°C, and an appropriate amount of the resulting powder was given into Supremax glass tubes, together with an appropriate amount of copper oxide, evacuated, and sealed.
as §3

[3] = design: species or system human; details: in vivo; remark: listed apart in the source
Method: As a first step to test the feasibility of this approach, a self-experiment was conducted by the inventors. The aim was to obtain first data on the effect size, the pharmacokinetic data in various body fluids, and the variability between subjects. Single, large doses of the following substances were ingested by the subjects: ^13C6-glucose (1 g, two subjects) ^15N-L-leucine (1 g, two subjects) ^15N3-L-arginine (250 mg, one subject) ^15N4-L-histidine (250 mg, one subject) Baseline and follow-up samples were taken from the following body fluids: blood, saliva, and urine. These samples were dried, milled, burned, and analysed by mass spectrometry. The results are given as δ-values, which are defined as follows: [formula] where rsample is the ratio of ^15N [^13C] over ^14N [[…]] in the sample, and rstandard is the ratio of ^15N [^13C] over ^14N [[…]] in a standard. Samples of exhaled breath were taken until 3 days after ingestion and analysed by IR-spectroscopy for ^13C/^12C-ratios. Glucose and leucine were ingested on day zero, while arginine and histidine were ingested on day 116.
Gas of the sample tubes was separated by freezing at -196°C (N2) and - 78°C(CO2), and let into a mass spectrometer (Finnigan Delta +XL) according to manufacturer's specifications. The isotopic composition was measured and compared to a standard. Results are given as δ-values, which are defined as follows: [formula] where rsample is the ratio of ^15N [^13C] over ^14N [[…]] in the sample, and rstandard is the ratio of ^15N [^13C] over ^14N [^13C] in a standard. Samples of exhaled breath were taken until 3 days after ingestion and analysed by IR-spectroscopy for ^13C/^12C-ratios. Glucose and leucine were ingested on day zero, while arginine and histidine were ingested on day 116.

[4] = Saliva test after ingestion of labelled substance (isotope content by mass spectrometry, δ-values); assay type: in vivo, human
Method: as §1, §2, §3

relative amount of ^13C in urine: drop to normal levels [1]	remaining effect size ([2]; blood, after about 50 hours after ingestion, disturbed by large variations)	marked increase in ^13C-content (time after ingestion) ([2]; in vivo)	rapid decrease of ^13C-content until (time after ingestion) ([2]; in vivo)	period over which measurements of ^13CO2 in expired breath are sensitive [3]	period over which the relative content of ^13C (DOB = delta over baseline) rises [3]	relative content of ^13C returns to baseline values [3]	effect size in saliva samples ([4]; saliva, single 1 g dose ingested, two subjects, relatively large variation)	δ-^15N-values of urine: time after which the figure slowly returns to baseline values [1]	period after which δ-values in saliva are similar to urine-values ([4]; in vivo)	SMILES
≤ 5 days	small	approximately 6 hours	about 50 hours	1 to 2 days	1 to 3 h	36 to 48 h	no significant effect size	–	–	O[13CH2][13C@H]1O[13CH](O)[13C@H](O)[13C@@H](O)[13C@@H]1O (stereo partly shown) [^13C6-glucose]
–	–	–	–	–	–	–	–	approximately 5 days	ca. 1 week	CC(C)C[C@H]([15NH2])C(=O)O [^15N-L-leucine]

Source: patent EP1637163A1, “Indicator of therapeutic compliance” (priority 2004, dated 2006)
